System: CP CML
Test: Part B: disease response in CP CML subjects
Format: in vivo, human
Details: for Complete Molecular Response, Best Response / Complete cytogenetic response, Best Response / Cytogenetic response: Minimal response, Best Response / Cytogenetic response: Minor response, Best Response / Cytogenetic response: No response, Best Response / Hematological response: CHR, Best Response / Hematological response: No response, Best Response / Major cytogenetic response, Best Response / Major molecular response, Best Response / Molecular response: No response, Best Response / Partial cytogenetic response, Best Response: number of patients
Text: This was a Phase I/2, open-label, single-agent, multicenter, multi-dose, dose-escalation study in subjects with Philadelphia chromosome-positive Ph+ CML (CP CML, AP CML and BP CML) and Ph+ ALL. The primary objectives of this study were to determine the maximum tolerated dose (MTD; or recommended Phase 2 dose [RP2D]) of the compound of Formula I when administered orally and to evaluate its safety.
In this study, the dose-escalation cohort started with an accelerated titration study design (ATD) and shifted to a 3±3 design when subjects in the preceding ATD cohort experienced either grade 2 or higher adverse events (AEs) or dose-limiting toxicity (DLT) during Cycle 1 that was not clearly and incontrovertibly related to the underlying disease or concomitant medications. The DLT period consisted of 28 days (Cycle 1). Subjects experiencing DLTs were managed with dose delays and/or discontinuation and continued in the study until disease progression. Decisions to advance to a succeeding dose level occurred after the evaluation of safety and tolerability data for a given dose level.
Accordingly, the eligible subjects were treated in 4-week cycles of once daily self-administration of the compound of Formula I. The administration was after an overnight fast, or after maintaining approximately 2 hours of fasting before and after the dosing in all cycles.
For the cohorts, where the 3±3 design applies, 3 subjects were enrolled initially. If 2 of these subjects experienced a Grade 2 or more toxicity (that was not clearly and incontrovertibly related to the underlying disease or concomitant medications), subsequent cohorts were escalated according to smaller increments. Further, if there were no DLTs in the first 3 subjects, dose escalation to the next higher dose level was allowed to proceed. If 1 of the 3 subjects experienced a DLT, that dose level was expanded to 6 subjects (3 additional subjects were enrolled). If 2 subjects at a given dose level experienced a DLT, the MTD was considered to have been exceeded. The next lower dose level was expanded to 6 subjects, or if 6 subjects had already been enrolled and no more than 1 of the 6 subjects experienced a DLT, then this lower dose level was considered the MTD. Additional subjects were enrolled in dose escalation cohorts for further assessment of safety and efficacy of the compound of Formula 1 at doses that were tolerated (i.e., doses that have <2 DLTs in 6 enrolled subjects or <1 DLT in 3 enrolled subjects). Thus 204 mg was arrived at as MTD. A subject experiencing a DLT was allowed to continue therapy with a reduced dose. Subjects who experienced a DLT and recovered were treated at the next lower dose level until disease progression or other events requiring further dose reduction existed. For cohorts at Dose Level 2 or higher, a further dose reduction (i.e., up to 2 levels lower than their originally assigned dose) was implemented in the case of a further DLT or other non-DLT events requiring a dose reduction, if and when the event leading to dose reduction returned to Grade 1 or lower in severity. The reduced dose was re-escalated to the original or higher dose (i.e., the dose for which safety had been established in the dose escalation cohort) considering subject safety and response to the compound of Formula I. The subject was discontinued from treatment using the compound of Formula I, if dose reduction below 48 mg was required.
The study was conducted over a period of 60 months (5 years) which was divided in 28-days cycle. In the first two cycles, the dose administration was started on day 1 and the subject's assessments were performed on day 1, day 2, day 3, day 8, day 15 and day 22. From Cycle 3 onwards, the assessments were performed every 3 months (i.e., on day 28 of Cycle 3, followed by day 28 of Cycle 6 which was further followed by day 28 of Cycle 9). […]

[1] = 16 CP CML patients with prior ponatinib
[2] = prior ponatinib, 48 mg (N = 1) ESC
[3] = prior ponatinib, 66 mg (N = 2) ESC
[4] = prior ponatinib, 90 mg (N = 2) ESC
[5] = prior ponatinib, 126 mg (N = 1) ESC
[6] = prior ponatinib, 174 mg (N = 5) ESC
[7] = prior ponatinib, 204 mg (N = 3) ESC
[8] = prior ponatinib, 240 mg (N = 2) ESC

Cc1ccc(C(=O)NNC(=O)c2c(C)cccc2Cl)cc1C#Cc1cnc2ccccc2c1 [compound of Formula I, N′-(2-chloro-6-methylbenzoyl)-4-methyl-3-[2-(3-quinolyl)ethynyl]-benzohydrazide]
Best Hematologic Response: No Response (204 mg (N = 6) ESC): 0 | Best Molecular Response: Complete Response (204 mg (N = 6) ESC): 1(16.7) | Best Molecular Response: Major Response (204 mg (N = 6) ESC): 3(50.0) | Best Molecular Response: No Response (204 mg (N = 6) ESC): 3(50.0) | Best Cytogenetic Response: Complete Response (240 mg (N = 3) ESC): 3(100) | Best Cytogenetic Response: Major Cytogenetic Response (240 mg (N = 3) ESC): 3(100) | Best Cytogenetic Response: Minimal Response (240 mg (N = 3) ESC): 0 | Best Cytogenetic Response: Minor Response (240 mg (N = 3) ESC): 0 | Best Cytogenetic Response: No Response (240 mg (N = 3) ESC): 0 | Best Cytogenetic Response: Partial Response (240 mg (N = 3) ESC): 0 | Best Hematologic Response: Complete Response (240 mg (N = 3) ESC): 2(66.7) | Best Hematologic Response: Major Hematologic Response (240 mg (N = 3) ESC): 2(66.7) | Best Hematologic Response: No Evidence of Leukemia (240 mg (N = 3) ESC): 0 | Best Hematologic Response: No Response (240 mg (N = 3) ESC): 0 | Best Molecular Response: Complete Response (240 mg (N = 3) ESC): 1(33.3) | Best Molecular Response: Major Response (240 mg (N = 3) ESC): 3(100) | Best Molecular Response: No Response (240 mg (N = 3) ESC): 0 | MMR achieved (8 patients out of 17, prior ponatinib): 47% | Major Cytogenetic Response (MCyR, both PCyR+ CCyR) (11 of 16 CP CML patients with prior ponatinib): 68.8% | Achieved MCyR [1]: 6 patients | Maintained MCyR [1]: 5 patients | Complete Molecular Response, Best Response (ASC (N = 3)): 0 | Complete cytogenetic response, Best Response (ASC (N = 3)): 1 | Cytogenetic response: Minimal response, Best Response (ASC (N = 3)): 0 | Cytogenetic response: Minor response, Best Response (ASC (N = 3)): 1 | Cytogenetic response: No response, Best Response (ASC (N = 3)): 1 | Hematological response: CHR, Best Response (ASC (N = 3)): 3 | Hematological response: No response, Best Response (ASC (N = 3)): 0 | Major cytogenetic response, Best Response (ASC (N = 3)): 1 | Major molecular response, Best Response (ASC (N = 3)): 0 | Molecular response: No response, Best Response (ASC (N = 3)): 3 | Partial cytogenetic response, Best Response (ASC (N = 3)): 0 | Complete Molecular Response, Best Response (PON (N = 15)): 4 | Complete cytogenetic response, Best Response (PON (N = 15)): 7 | Cytogenetic response: Minimal response, Best Response (PON (N = 15)): 1 | Cytogenetic response: Minor response, Best Response (PON (N = 15)): 1 | Cytogenetic response: No response, Best Response (PON (N = 15)): 2 | Hematological response: CHR, Best Response (PON (N = 15)): 12 | Hematological response: No response, Best Response (PON (N = 15)): 3 | Major cytogenetic response, Best Response (PON (N = 15)): 10 | Major molecular response, Best Response (PON (N = 15)): 8 | Molecular response: No response, Best Response (PON (N = 15)): 7 | Partial cytogenetic response, Best Response (PON (N = 15)): 3 | Best Cytogenetic Response: Complete Response (Total (N = 30) ESC): 17(56.7) | Best Cytogenetic Response: Major Cytogenetic Response (Total (N = 30) ESC): 20(66.7) | Best Cytogenetic Response: Minimal Response (Total (N = 30) ESC): 4(13.3) | Best Cytogenetic Response: Minor Response (Total (N = 30) ESC): 1(3.3) | Best Cytogenetic Response: No Response (Total (N = 30) ESC): 3(10.0) | Best Cytogenetic Response: Partial Response (Total (N = 30) ESC): 3(10.0) | Best Hematologic Response: Complete Response (Total (N = 30) ESC): 24(80.0) | Best Hematologic Response: Major Hematologic Response (Total (N = 30) ESC): 24(80.0) | Best Hematologic Response: No Evidence of Leukemia (Total (N = 30) ESC): 0 | Best Hematologic Response: No Response (Total (N = 30) ESC): 4(13.3) | Best Molecular Response: Complete Response (Total (N = 30) ESC): 7(23.3) | Best Molecular Response: Major Response (Total (N = 30) ESC): 14(46.7) | Best Molecular Response: No Response (Total (N = 30) ESC): 14(46.7) | CCyR as best response (more than 3 prior TKIs including ponatinib): 46.7% | CCyR as best response (more than 3 prior TKIs including ponatinib and asciminib): 33.3% | Major cytogenetic response as best response (ponatinib group): 66.7% | Major cytogenetic response as best response (ponatinib plus asciminib group): 33.3% | Achieved MCyR [2]: 0 | Achieved MMR [2]: 1(100) | MCyR [2]: 1(100) | Maintained MCyR [2]: 1(100) | Maintained MMR [2]: 0 | Achieved MCyR [3]: 1(50.0) | Achieved MMR [3]: 0 | MCyR [3]: 1(50.0) | Maintained MCyR [3]: 0 | Maintained MMR [3]: 0 | Achieved MCyR [4]: 1(50.0) | Achieved MMR [4]: 1(50.0) | MCyR [4]: 1(50.0) | Maintained MCyR [4]: 0 | Maintained MMR [4]: 0 | Achieved MCyR [5]: 0 | Achieved MMR [5]: 0 | MCyR [5]: 0 | Maintained MCyR [5]: 0 | Maintained MMR [5]: 0 | Achieved MCyR [6]: 1(20.0) | Achieved MMR [6]: 3(60.0) | MCyR [6]: 3(60.0) | Maintained MCyR [6]: 2(40.0) | Maintained MMR [6]: 0 | Achieved MCyR [7]: 2(66.7) | Achieved MMR [7]: 1(33.3) | MCyR [7]: 3(100) | Maintained MCyR [7]: 1(33.3) | Maintained MMR [7]: 0 | Achieved MCyR [8]: 1(50.0) | Achieved MMR [8]: 2(100) | MCyR [8]: 2(100) | Maintained MCyR [8]: 1(50.0) | Maintained MMR [8]: 0 | Achieved MCyR (prior ponatinib, Total ESC): 6(37.5) | Achieved MMR (prior ponatinib, Total ESC): 8(50.0) | MCyR (prior ponatinib, Total ESC): 11(68.8) | Maintained MCyR (prior ponatinib, Total ESC): 5(31.3) | Maintained MMR (prior ponatinib, Total ESC): 0

From patent publication US20260069584A1, “METHODS OF TREATING CHRONIC MYELOID LEUKEMIA USING THE TYROSINE KINASE INHIBITOR VODOBATINIB” (Sun Pharma Advanced Research Company Ltd., priority 2022, published 2026)
